Laboratory results: patent US20230061736A1, “GPR119 AGONISTS” (Kallyope, Inc., priority 2019, published 2023)

Target: T1, human GPR119 (hGPR119) (Homo sapiens, UniProt Q8TDV5)
T1 construct: expressed in transfected cells
T1 sequence (Q8TDV5 1-335): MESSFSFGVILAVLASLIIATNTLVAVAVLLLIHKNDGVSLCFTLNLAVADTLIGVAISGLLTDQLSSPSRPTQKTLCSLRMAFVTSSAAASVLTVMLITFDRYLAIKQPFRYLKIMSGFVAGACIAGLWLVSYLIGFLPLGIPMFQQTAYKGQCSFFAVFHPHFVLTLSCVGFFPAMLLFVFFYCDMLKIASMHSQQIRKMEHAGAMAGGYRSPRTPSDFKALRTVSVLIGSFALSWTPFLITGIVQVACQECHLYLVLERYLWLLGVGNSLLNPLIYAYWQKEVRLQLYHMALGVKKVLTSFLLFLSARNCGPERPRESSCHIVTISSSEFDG
Test: cAMP accumulation assay (cAMP Gs dynamic HTRF kit)
Assay type: cell-based
Conditions: CHO-K1 cells stably expressing hGPR119, 4-parameter fit; for Emax: 1 h, % activity normalized to Max/Min controls; for EC50: cAMP accumulation
Method: CHO-K1 cells stably expressing human GPR119 (hGPR119) were prepared by transfection of a GPR119-carrying plasmid using Lipofectamine 2000 (following manufacturer instructions). A stable cell line was established using the limiting dilution method with geneticine selection. Assay-ready frozen (ARF) cells were prepared and used throughout the study.
The assay was performed in a 384-well plate format using the cAMP Gs dynamic assay kit from Cisbio. ARF cells expressing hGPR119 were thawed, washed and then resuspended in cAMP stimulation buffer at a cell density of 1.1×10^6 cells/mL. Cells were plated at a density of ˜10,000 cells/well (9 μL/well). Dose response curves for the tested compounds were prepared in a cAMP stimulation buffer, containing 0.1% Tween 80 at 4 fold the final concentration. The compounds were then transferred to the cell plates using BRAVO (3 μL/well) and the plates were incubated for 60 minutes at 37° C./5% CO2. Detection buffer (10 μL, prepared as described in the cAMP Gs dynamic kit) were added to each well, and the plates were incubated at ambient temperature for 1 hr.
RT-FRET was measured using a ClarioSTAR plate reader, calculating the ratio between emissions at 665 nm and 620 nm (HTRF ratio). The HTRF ratio for positive (Max) and negative (Min) controls were used to normalize HTRF data and generate values for % activity. EC50 and Max activity values were determined using a standard 4-parameter fit.

Structure (SMILES) | Emax [%] | EC50 [nM]
O=C(Cc1ccc(OCCCC2CCN(c3ncc(Cl)cn3)CC2)cc1F)N1CC(CCNC[C@H](O)[C@H](O)[C@H](O)CO)C1 [Example 164, 2-[4-[3-[1-(5-chloropyrimidin-2-yl)-4-piperidyl]propoxy]-2-fluoro-phenyl]-1-[3-[2-[[(2S,3S,4R)-2,3,4,5-tetrahydroxypentyl]amino]ethyl]azetidin-1-yl]ethanone] | 100 to 130 | ≤ 100
O=C(Cc1c(F)cc(OCCCC2CCN(c3ncc(Cl)cn3)CC2)cc1F)N1CC[C@@H](CNCC(O)(CO)CO)C1 [Example 150, 2-[4-[3-[1-(5-chloropyrimidin-2-yl)-4-piperidyl]propoxy]-2,6-difluoro-phenyl]-1-[(3S)-3-[[[2,3-dihydroxy-2-(hydroxymethyl)propyl]amino]methyl]pyrrolidin-1-yl]ethanone] | 100 to 130 | ≤ 100
O=C(Cc1ccc(COCCCC2CCN(c3ncc(Cl)cn3)CC2)cc1F)N1CC(CNC[C@H](O)[C@@H](O)[C@H](O)[C@H](O)CO)C1 [Example 90, 2-[4-[3-[1-(5-chloropyrimidin-2-yl)-4-piperidyl]propoxymethyl]-2-fluoro-phenyl]-1-[3-[[[(2S,3R,4R,5R)-2,3,4,5,6-pentahydroxyhexyl]amino]methyl]azetidin-1-yl]ethanone] | 50 to 100 | 100 to 1000
CCOc1cnc(N2CCC(CCCOc3cc(F)c(CC(=O)N4CC(CNC[C@H](O)[C@@H](O)[C@H](O)[C@H](O)CO)C4)c(F)c3)CC2)nc1 [Example 114, 2-[4-[3-[1-(5-ethoxypyrimidin-2-yl)-4-piperidyl]propoxy]-2,6-difluoro-phenyl]-1-[3-[[[(2S,3R,4R,5R)-2,3,4,5,6-pentahydroxyhexyl]amino]methyl]azetidin-1-yl]ethanone] | 100 to 130 | ≤ 100
O=C(NCC(O)(CO)CO)C1CCN(C(=O)Cc2ccc(OCCCC3CCN(c4ncc(Cl)cn4)CC3)cc2F)CC1 [Example 41, 1-[2-[4-[3-[1-(5-chloropyrimidin-2-yl)-4-piperidyl]propoxy]-2-fluoro-phenyl]acetyl]-N-[2,3-dihydroxy-2-(hydroxymethyl)propyl]piperidine-4-carboxamide] | 100 to 130 | 100 to 1000
O=C(Cc1ccc(OCCCC2CCN(c3ncc(Cl)cn3)CC2)cc1F)NCCS(=O)(=O)O [Example 10, 2-[[2-[4-[3-[1-(5-chloropyrimidin-2-yl)-4-piperidyl]propoxy]-2-fluoro-phenyl]acetyl]amino]ethanesulfonic acid] | ≥ 130 | 1000 to 10000
O=C(NCCS(=O)(=O)O)C1CN(C(=O)Cc2ccc(OCCCC3CCN(c4ncc(Cl)cn4)CC3)cc2F)C1 [Example 171, 2-[[1-[2-[4-[3-[1-(5-chloropyrimidin-2-yl)-4-piperidyl]propoxy]-2-fluoro-phenyl]acetyl]azetidine-3-carbonyl]amino]ethanesulfonic acid] | 100 to 130 | 100 to 1000
O=C(Cc1c(F)cc(OCCC2CC(C3CCN(c4ncc(Cl)cn4)CC3)C2)cc1F)N1CC(CNC[C@H](O)[C@@H](O)[C@H](O)[C@H](O)CO)C1 (stereo partly drawn) [Example 124, 2-[4-[2-[3-[1-(5-chloropyrimidin-2-yl)-4-piperidyl]cyclobutyl]ethoxy]-2,6-difluoro-phenyl]-1-[3-[[[(2S,3R,4R,5R)-2,3,4,5,6-pentahydroxyhexyl]amino]methyl]azetidin-1-yl]ethanone] | 100 to 130 | ≤ 100
O=C(Cc1ccc(OCCCC2CCN(c3ncc(Cl)cn3)CC2)cc1F)N1CC(CNC[C@H](O)[C@@H](O)[C@H](O)CO)C1 [Example 166, 2-[4-[3-[1-(5-chloropyrimidin-2-yl)-4-piperidyl]propoxy]-2-fluoro-phenyl]-1-[3-[[[(2S,3R,4R)-2,3,4,5-tetrahydroxypentyl]amino]methyl]azetidin-1-yl]ethanone] | 100 to 130 | ≤ 100
O=C(Cc1ccc(OCCCC2CCN(c3ncc(Cl)cn3)CC2)cc1F)NCCC(=O)NC(CO)(CO)CO [Example 20, 3-[[2-[4-[3-[1-(5-chloropyrimidin-2-yl)-4-piperidyl]propoxy]-2-fluoro-phenyl]acetyl]amino]-N-[2-hydroxy-1,1-bis(hydroxymethyl)ethyl]propanamide] | ≥ 130 | 100 to 1000
O=C(Cc1ccc(OCCCCC2CCN(c3ncc(Cl)cn3)CC2)cc1F)N1CC(CNC[C@H](O)[C@@H](O)[C@H](O)[C@H](O)CO)C1 [Example 54, 2-[4-[4-[1-(5-chloropyrimidin-2-yl)-4-piperidyl]butoxy]-2-fluoro-phenyl]-1-[3-[[[(2S,3R,4R,5R)-2,3,4,5,6-pentahydroxyhexyl]amino]methyl]azetidin-1-yl]ethanone] | ≥ 130 | 100 to 1000
O=C(Cc1ccc(OCCCC2CCN(c3ncc(Cl)cn3)CC2)cc1F)N1CC(CCNC(CO)CO)C1 [Example 56, 2-(4-(3-(1-(5-chloropyrimidin-2-yl)piperidin-4-yl)propoxy)-2-fluorophenyl)-1-(3-(2-((1,3-dihydroxypropan-2-yl)amino)ethyl)azetidin-1-yl)ethan-1-one] | 100 to 130 | ≤ 100
O=C(Cc1ccc(OCCCC2CCN(c3ncc(Cl)cn3)CC2)cc1F)NCCCCC(=O)NC(CO)(CO)CO [Example 24, 5-[[2-[4-[3-[1-(5-chloropyrimidin-2-yl)-4-piperidyl]propoxy]-2-fluoro-phenyl]acetyl]amino]-N-[2-hydroxy-1,1-bis(hydroxymethyl)ethyl]pentanamide] | ≥ 130 | 100 to 1000
O=C(Cc1ccc(OCCCC2CCN(c3ncc(Cl)cn3)CC2)cc1F)N1CC(CCNCC(CO)CO)C1 [Example 57, 2-(4-(3-(1-(5-chloropyrimidin-2-yl)piperidin-4-yl)propoxy)-2-fluorophenyl)-1-(3-(2-((3-hydroxy-2-(hydroxymethyl)propyl)amino)ethyl)azetidin-1-yl)ethan-1-one] | 100 to 130 | ≤ 100
COCc1cnc(N2CCC(CCCOc3ccc(CC(=O)N4CC(C(=O)NCCNC(=O)NC(CO)(CO)CO)C4)c(F)c3)CC2)nc1 [Example 27, 1-[2-[2-fluoro-4-[3-[1-[5-(methoxymethyl)pyrimidin-2-yl]-4-piperidyl]propoxy]phenyl]acetyl]-N-[2-[[2-hydroxy-1,1-bis (hydroxymethyl)ethyl]carbamoylamino]ethyl]azetidine-3-carboxamide] | 100 to 130 | 100 to 1000
O=C(NC(CO)CO)C1CN(C(=O)Cc2ccc(OCCCC3CCN(c4ncc(Cl)cn4)CC3)cc2F)C1 [Example 28, 1-[2-[4-[3-[1-(5-chloropyrimidin-2-yl)-4-piperidyl]propoxy]-2-fluoro-phenyl]acetyl]-N-[2-hydroxy-1-(hydroxymethyl)ethyl]azetidine-3-carboxamide] | 100 to 130 | 100 to 1000
CC(C)OC(=O)N1CCC2(CC1)CC(CCCOc1ccc(CC(=O)N3CC(CNC[C@H](O)[C@@H](O)[C@H](O)[C@H](O)CO)C3)c(F)c1)C2 [Example 117, isopropyl 2-[3-[3-fluoro-4-[2-oxo-2-[3-[[[(2S,3R,4R,5R)-2,3,4,5,6-pentahydroxyhexyl]amino]methyl]azetidin-1-yl]ethyl]phenoxy]propyl]-7-azaspiro[3.5]nonane-7-carboxylate] | 100 to 130 | 100 to 1000
CCCc1cnc(N2CCC(CCCOc3cc(F)c(CC(=O)N4CC(CNCC(O)(CO)CO)C4)c(F)c3)CC2)nc1 [Example 75, 2-(2,6-difluoro-4-(3-(1-(5-propylpyrimidin-2-yl)piperidin-4-yl)propoxy)phenyl)-1-(3-(((2,3-dihydroxy-2-(hydroxymethyl)propyl)amino)methyl)azetidin-1-yl)ethan-1-one] | 100 to 130 | ≤ 100
COCc1cnc(N2CCC(CCCOc3cc(F)c(CC(=O)N4CC(CNC[C@H](O)[C@@H](O)[C@H](O)[C@H](O)CO)C4)c(F)c3)CC2)nc1 [Example 94, 2-(2,6-difluoro-4-(3-(1-(5-(methoxymethyl)pyrimidin-2-yl)piperidin-4-yl)propoxy)phenyl)-1-(3-((((2S,3R,4R,5R)-2,3,4,5,6-pentahydroxyhexyl)amino)methyl)azetidin-1-yl)ethan-1-one] | 100 to 130 | 100 to 1000
CCCc1cnc(N2CCC(CCCOc3cc(F)c(CC(=O)NCCCCC[N+](CC)(CC)CC)c(F)c3)CC2)nc1 [Example 4, 5-[[2-[2,6-difluoro-4-[3-[1-(5-propylpyrimidin-2-yl)-4-piperidyl]propoxy]phenyl]acetyl]amino] pentyl-triethyl-ammonium] | 100 to 130 | 100 to 1000
